# What was measured:
# Zucker Fatty (ZF) rats [1] = experiment: Circadian changes of blood glucose and insulin under restricted feeding after four weeks of treatment; format: in vivo, rat
# Source text: The effectiveness of mitiglinide was examined by using Zucker Fatty (ZF) rats, which have the feature of obesity and insulin resistance. It is known that though ZF rats have hyperinsulinemia and impaired glucose tolerance, their fasting blood glucose is within a normal range and, therefore, their pathology is similar to IGT in human being (Br J Pharmacol 125, 1708-14, 1998).
# Male Zucker Fatty rats of 6 weeks old were introduced and acclimatized to the restricted feeding of one hour each (9:00 to 10:00 and 15:00 to 16:00) twice per a day. After acclimatization for one week, the rats were randomly divided into two groups, and drugs were administered to them for four weeks. As the drugs, mitiglinide suspended in 0.5% methylcellulose was forcibly orally administered to one group to become a dose of 3 mg/kg, and only 0.5% methylcellulose solution that is a dose vehicle was forcibly orally administered to the other group just before each meal twice per a day. The circadian changes of their blood glucose and insulin that occurred under the restricted feeding were measured upon starting the administration and in the fourth week after its start. The drugs were not administered on the measurement day, and their blood was collected through the caudal vein before morning feeding (9:00), one hour after the feeding (10:00), two hours after the feeding (11:00), before afternoon feeding (15:00), one hour after the feeding (16:00), and two hours after the feeding (17:00). Then, their blood glucose and insulin were measured in accordance with the routine method.
# Zucker Fatty (ZF) rats [2] = experiment: Insulin tolerance test (ITT); format: in vivo, rat
# Protocol: On another day of the fourth week, the insulin tolerance test (ITT) was conducted in order to examine the degree of improvement of the general insulin resistance. Commercially available insulin preparation (NOVORIN R, NOVO) diluted to 0.5 U/mL with a normal saline solution was subcutaneously injected to the back of ZF rats fasted overnight to become 0.5 U/kg. Their blood was collected through the caudal vein 15, 30, 60, 120 and 180 minutes after the administration to measure their blood glucose. The blood glucose was measured in accordance with the routine method.
# In response to the above results, ITT was conducted in order to more precisely quantify the degree of improvement of the general insulin sensitivity. […] However, the blood glucose lowered by about 50% of the level before the administration in 60 minutes after the administration of insulin due to the treatment by mitiglinide.
# [3] = feeding 9:00 to 10:00 and 15:00 to 16:00, fourth week, 3 mg/kg
# [4] = male ZF rats, 3 mg/kg orally just before each meal twice per day for four weeks, measured in fourth week, no drug on measurement day
smiles,measurement,setting,value
"O=C(O)[C@H](CC(=O)N1C[C@H]2CCCC[C@H]2C1)Cc1ccccc1 [Mitiglinide, (2S)-2-benzyl-4-[(3aR, 7aS) -octahydro-2H-isoindole-2-yl]-4-oxobutanoic acid]",Circadian changes of the blood glucose (FIG. 1),Zucker Fatty (ZF) rats [1]; [3],no change
same,Insulin level in the blood plasma (FIG. 2),Zucker Fatty (ZF) rats [1]; [3],decrease of the insulin level was clearly seen
same,Sum of the circadian changes of blood glucose,Zucker Fatty (ZF) rats [1]; [4],1050 ± 20 mg·h/dL
same,Sum of the circadian changes of insulin,Zucker Fatty (ZF) rats [1]; [4],224 ± 11 ng·h/mL
same,Sum of blood glucose,"Zucker Fatty (ZF) rats [2]; ITT in fourth week, insulin 0.5 U/kg s.c., ZF rats fasted overnight, blood 15-180 min after insulin",243 ± 7 mg·h/dL
same,Blood glucose lowering relative to the level before the administration of insulin,"Zucker Fatty (ZF) rats [2]; ITT, 60 minutes after insulin 0.5 U/kg s.c., FIG. 3",about 50%

# From patent US20070275999A1, “PHARMACEUTICAL COMPOSITIONS CONTAINING A HYPOGLYCEMIC AGENT(S) FOR IMPROVING OR TREATING IMPAIRED GLUCOSE TOLERANCE, BORDERLINE DIABETES, INSULIN RESISTANCE OR HYPERINSULINEMIA” (Ajinomoto Co., Inc., priority 2005, published 2007)
